In PMC5435703 (Scientific Reports, 2017):
Converted amounts (≈) assume the structure as drawn. Where two headings read alike, the source gives them in different places. Marks after values point to notes of the source that are not given here.

Columns and labels:
[1] = LDH release assay for HeLa cytotoxicity; format: cell-based; settings: human, HeLa cells; LDH release, 24 hours; tested at 25, 50 and 100 µM; read-out: HeLa Cytotox. IC50
[2] = Hemolysis assay with red blood cells; settings: human, pH 7.2
four MRSA isolates = experiment: MIC assays, panel of four MRSA isolates; format: cell-based; settings: Staphylococcus aureus, range over isolates, read-out: MIC against a panel of four MRSA isolates
MtB H37Ra = experiment: MIC assay for Mycobacterium tuberculosis; format: cell-based; settings: 168 h, seven days
MRSE 35984 [3] = experiment: MIC broth microdilution assay; format: cell-based, Staphylococcus epidermidis; settings: for MIC: Staphylococcus epidermidis, MRSE
MRSA BAA-1707 [4] = experiment: MIC broth microdilution assay; format: cell-based, Staphylococcus aureus; settings: for MIC: Staphylococcus aureus
VRE 700221 = experiment: MIC broth microdilution assay; format: cell-based, Enterococcus faecium; settings: for MIC: Enterococcus, VRE
MRSA-2 = experiment: MIC broth microdilution assay; format: cell-based, Staphylococcus aureus; settings: Staphylococcus aureus, MRSA
MRSA-1 = experiment: MIC broth microdilution assay; format: cell-based, Staphylococcus aureus; settings: Staphylococcus aureus, MRSA
S. epi 12228 = experiment: MIC broth microdilution assay; format: cell-based, Staphylococcus epidermidis; settings: Staphylococcus epidermidis, 12228
S. epidermidis = experiment: MIC assays, S. epidermidis strains; format: cell-based; settings: Staphylococcus epidermidis; range over strains
HeLa cells = experiment: LDH release assay for HeLa cytotoxicity; format: cell-based; settings: 100 µM
MRSE 35984 [5] = experiment: Calgary Biofilm Device (CBD) MBC/MBEC assay; format: cell-based, Staphylococcus epidermidis
MRSA BAA-1707 [6] = experiment: Calgary Biofilm Device (CBD) MBC/MBEC assay; format: cell-based, Staphylococcus aureus; settings: Staphylococcus aureus, 24 h
MRSA BAA-44 = experiment: MIC broth microdilution assay; format: cell-based; settings: Staphylococcus aureus
[7] = Chemical stability in aqueous formulations; format: physicochemical; settings: room temperature
[8] = Table 1, read-out: MIC MRSE 35984
[9] = Table 3, read-out: MRSE 35984 MIC
[10] = Table 1, read-out: MIC VRE 700221
[11] = Table 3, read-out: VRE 700221 MIC
[12] = Table 1, read-out: MIC S. epi 12228
[13] = supplement page 28, single CBD plate

SMILES: CCc1cccc2nc3c(O)c(Br)cc(Br)c3nc12 [HP 18]
- IC50 at 24 h [1]: > 100 µM
- hemolysis at 1 h, 200 µM [2]: 1.7%
- MIC (four MRSA isolates): 0.05 to 0.59 µM (≈ 0.0191 to 0.225 µg/mL)
- MIC (MtB H37Ra): 25 µM (≈ 9.55 µg/mL)
- MIC (MRSE 35984 [3]; [8]): 0.1 to 0.78 µM (≈ 0.0382 to 0.298 µg/mL)
- MIC (MRSE 35984 [3]; [9]): ≤ 0.1 µM
- MIC (MRSE 35984 [3]; single plate shown as picture, read-out: MIC (µM), MIC Assay Against MRSE 35984): 0.1 µM (≈ 0.0382 µg/mL)
- MIC MRSE 35984 (MRSE 35984 [3]; Table 1): ≤ 0.10^b µM
- MIC (MRSA BAA-1707 [4]; Table 1, three independent experiments, read-out: MIC MRSA BAA-1707): 0.05 to 0.3 µM (≈ 0.0191 to 0.115 µg/mL)
- MIC (MRSA BAA-1707 [4]; Table 3, read-out: MRSA BAA-1707 MIC): ≤ 0.1 µM
- MIC (MRSA BAA-1707 [4]; single plate shown as picture, read-out: MIC (µM), MIC Assay against MRSA BAA-1707): 0.1 µM (≈ 0.0382 µg/mL)
- MIC MRSA BAA-1707 (MRSA BAA-1707 [4]; Table 1, three independent experiments): ≤ 0.10^b µM
- MIC (VRE 700221; [10]): 0.15 µM (≈ 0.0573 µg/mL)
- MIC (VRE 700221; [11]): 0.15 µM (≈ 0.0573 µg/mL)
- MIC (VRE 700221; single plate shown as picture, read-out: MIC (µM), MIC Assay Against VRE 700221): 0.2 µM (≈ 0.0764 µg/mL)
- MIC VRE 700221 (VRE 700221; Table 1): 0.15^a µM
- MIC (MRSA-2; Table 1, read-out: MIC MRSA-2): 0.39 µM (≈ 0.149 µg/mL)
- MIC (MRSA-2; single plate shown as picture, read-out: MIC (µM), MIC Assay Against MRSA-2): 0.39 µM (≈ 0.149 µg/mL)
- MIC (MRSA-1; Table 1, read-out: MIC MRSA-1): 0.15 µM (≈ 0.0573 µg/mL)
- MIC (MRSA-1; single plate shown as picture, read-out: MIC (µM), MIC Assay Against MRSA-1): 0.2 µM (≈ 0.0764 µg/mL)
- MIC (S. epi 12228; [12]): 0.3 µM (≈ 0.115 µg/mL)
- MIC (S. epi 12228; single plate shown as picture, read-out: MIC (µM), MIC Assay Against S. epidermidis 12228): 0.39 µM (≈ 0.149 µg/mL)
- MIC (S. epidermidis): 0.1 to 0.3 µM (≈ 0.0382 to 0.115 µg/mL)

SMILES: COCCOCCOCCOCCOC(=O)Oc1c(Br)cc(Br)c2nc3ccccc3nc12 [HP 24]
- IC50 at 24 h [1]: > 100 µM
- HeLa cell cytotoxicity at 100 µM (HeLa cells): no HeLa cell cytotoxicity
- hemolysis at 1 h, 200 µM [2]: 2.4%
- MBC (MRSE 35984 [5]; Staphylococcus epidermidis, MRSE, CBD, planktonic killing, read-out: MRSE 35984 MBC): 75 µM (≈ 44.1 µg/mL)
- MRSE Biofilm Eradication MBEC (MRSE 35984 [5]; [13]): 100 µM
- MRSE Planktonic Killing MBC (MRSE 35984 [5]; [13]): 50 µM
- MIC (MtB H37Ra): 25 µM (≈ 14.7 µg/mL)
- MIC (MRSE 35984 [3]; [8]): 1.56 µM (≈ 0.918 µg/mL)
- MIC (MRSE 35984 [3]; [9]): 1.56 µM (≈ 0.918 µg/mL)
- MIC (VRE 700221; [10]): 6.25 µM (≈ 3.68 µg/mL)
- MIC (VRE 700221; [11]): 6.25 µM (≈ 3.68 µg/mL)
- MBC (MRSA BAA-1707 [6]; CBD, planktonic killing, 24 hours treatment, read-out: MRSA BAA-1707 MBC): 75 µM (≈ 44.1 µg/mL)
- MBC (MRSA BAA-1707 [6]; supplement page 27, second CBD plate, read-out: MRSA Planktonic Killing MBC): 100 µM (≈ 58.8 µg/mL)
- MIC (MRSA-2; Table 1, read-out: MIC MRSA-2): 2.35 µM (≈ 1.38 µg/mL)
- MIC (MRSA BAA-44; single plate shown as picture, read-out: MIC (µM), MIC Assay Against MRSA BAA-44): 1.56 µM (≈ 0.918 µg/mL)
- MIC (MRSA BAA-44; Table 1, read-out: MIC MRSA BAA-44): 1.56 µM (≈ 0.918 µg/mL)
- chemically stable in aqueous formulations [7]: > 1 month
- MIC (S. epi 12228; [12]): 0.78 µM (≈ 0.459 µg/mL)
